Test results from patent publication US8993282B2, “Carotenoid fermentation method” (JX Nippon Oil & Energy Corporation, priority 2008, dated 2015).

Tested on: Paracoccus carotinifaciens strain E-396 (FERM BP-4283)
Assay: Amino acid supplementation (20 amino acids), test tube culture, carotenoid by HPLC and growth by OD610
Format: cell-based
Details: amino acid at 1.0 g/L; for effect on the production of carotenoid pigments: versus tube with no amino acid; for Astaxanthin / Total carotenoid: culture solution; for Astaxanthin / Total carotenoid / OD610: 28° C. for 4 days; for OD610: microbial cell growth, absorbance at 610 nm
Protocol: In the examples, carotenoids were quantified by high performance liquid chromatography (HPLC) as follows.
Two columns of Wakosil-II 5 SIL-100 (φ4.6×250 mm) (Wako Pure Chemical Industries, Ltd., Japan) were connected to each other for use as a column. Elution was performed by flowing an n-hexane-tetrahydrofuran-methanol mixed solution (40:20:1), which was a mobile phase, at a flow rate of 1.0 mL/minute at a constant temperature around room temperature. The measurement was performed as follows. Samples were each dissolved in tetrahydrofuran and then diluted 100-fold with the mobile phase. Each dilution was injected in a volume of 20 μL. The column eluate was detected at a wavelength of 470 nm. As a reference for quantification, astaxanthin (SIGMA, Cat. No. A9335) was used. The astaxanthin concentration of the reference solution was determined using the following equation after measuring the absorbance (A) of the reference solution at 477 nm and the area percentage % (B) of the astaxanthin peak at the time of HPLC analysis under the above conditions. Astaxanthin concentration (mg/L)=A/2150×B×100
A medium of the following composition (sucrose 30 g/L, corn steep liquor 30 g/L, potassium dihydrogenphosphate 1.5 g/L, disodium hydrogenphosphate 12-hydrate 3.8 g/L, calcium chloride dihydrate 5.0 g/L, magnesium sulfate 7-hydrate 0.7 g/L, iron sulfate 7-hydrate 0.3 g/L, pH 7.2) was dispensed in 8 ml volumes into cotton-plugged test tubes having an inner diameter of 18 mm and sterilized in an autoclave at 121° C. for 15 minutes to prepare a test tube medium for seed culture.
Next, a medium of the following composition (glucose 30 g/L, filtered corn steep liquor 5 g/L, ammonium sulfate 1.5 g/L, potassium dihydrogenphosphate 1.5 g/L, disodium hydrogenphosphate 12-hydrate 3.8 g/L, calcium chloride dihydrate 5.0 g/L, magnesium sulfate 7-hydrate 0.7 g/L, iron sulfate 7-hydrate 0.6 g/L, ester-based defoaming agent 0.2 g/L) was dispensed in 8 ml volumes into cotton-plugged test tubes having an inner diameter of 18 mm (21 tubes in total).
The mediums in these test tubes were supplemented with 20 amino acids, glycine, alanine, valine, leucine, isoleucine, serine, threonine, aspartic acid, glutamic acid, asparagine, glutamine, lysine, arginine, cysteine, methionine, phenylalanine, tyrosine, tryptophan, histidine and proline, respectively, at 1.0 g/L. One of the tubes was supplemented with no amino acid as a control. Finally, the mediums in the tubes were adjusted to pH 7.1 with aqueous sodium hydroxide or aqueous sulfuric acid and then sterilized in an autoclave at 121° C. for 20 minutes.
Paracoccus carotinifaciens strain E-396 (FERM BP-4283) was inoculated into the test tube medium for seed culture and then cultured with shaking at 28° C. for 2 days at 300 spm. The resulting culture solution was then inoculated in 0.1 ml volumes into the 21 test tube media, respectively, and cultured with shaking at 28° C. for 4 days at 300 spm.
Each culture solution was measured for its carotenoid concentration by HPLC and microbial cell growth was determined by OD610 (absorbance at 610 nm).

SMILES	effect on the production of carotenoid pigments	Astaxanthin [mg/L]	Total carotenoid [mg/L]	OD610
C[C@@H](O)[C@H](N)C(=O)O [Threonine, threonine]	stimulatory effect	5.2	12.5	8
NCC(=O)O [Glycine, glycine]	stimulatory effect	6.2	19.0	18
N[C@@H](Cc1c[nH]c2ccccc12)C(=O)O [Tryptophan, tryptophan]		3.0	7.0	10
CC(C)[C@H](N)C(=O)O [Valine, valine]		3.0	9.2	10
C[C@H](N)C(=O)O [Alanine, alanine]	stimulatory effect	6.2	20.3	13
CSCC[C@H](N)C(=O)O [Methionine, methionine]	clear inhibitory effect	1.4	5.0	7
N[C@@H](Cc1ccc(O)cc1)C(=O)O [Tyrosine, tyrosine]	stimulatory effect	5.0	11.3	12
NC(=O)CC[C@H](N)C(=O)O [Glutamine, glutamine]	stimulatory effect	8.3	25.8	17
O=C(O)[C@@H]1CCCN1 [Proline, proline]	stimulatory effect	5.0	10.9	13
N[C@@H](Cc1ccccc1)C(=O)O [Phenylalanine, phenylalanine]	stimulatory effect	4.9	10.6	10
NC(=O)C[C@H](N)C(=O)O [Asparagine, asparagine]	stimulatory effect	8.1	24.2	14
N[C@@H](CS)C(=O)O [Cysteine, cysteine]	clear inhibitory effect	0.7	3.2	4
N=C(N)NCCC[C@H](N)C(=O)O [Arginine, arginine]	stimulatory effect	5.1	11.7	13
CC[C@H](C)[C@H](N)C(=O)O [Isoleucine, isoleucine]	clear inhibitory effect	1.3	4.5	6
N[C@@H](Cc1c[nH]cn1)C(=O)O [Histidine, histidine]		3.3	8.1	8
N[C@@H](CO)C(=O)O [Serine, serine]	stimulatory effect	6.0	16.4	13
N[C@@H](CC(=O)O)C(=O)O [Aspartic Acid, aspartic acid]	stimulatory effect	9.4	27.0	18
CC(C)C[C@H](N)C(=O)O [Leucine, leucine]	stimulatory effect	4.7	10.1	11
NCCCC[C@H](N)C(=O)O [Lysine, lysine]	clear inhibitory effect	1.1	4.9	11
